The source of these data is patent publication US8591892B2, “FTY720 increases CD74 expression and sensitizes cancer cells to anti-CD74 antibody-mediated cell death” (The Ohio State University, priority 2011, dated 2013).

The subject of series [1] is primary tumor cells from MCL patients. Kind of series: Cell viability by annexin-V/PI staining and flow cytometry. Format: cell-based, human. The settings on record: six MCL patients, 24 hours; FTY720 2.5 μM, immobilized milatuzumab 5 μg/ml. On the procedure:
FIG. 4. FTY720 sensitizes MCL cell lines and primary patient tumor cells to milatuzumab-mediated cytotoxicity. (A) Four MCL cell lines and primary cells from 6 patients were treated with FTY720 and/or milatuzumab plus cross-linking antibodies at the indicated concentrations. (B) Patient characteristics. (C) Individual patient responses. (D) Representative histograms summarizing patient responses. Cell death was determined by annexin V/PI staining and flow cytometry at 24 hours. Data are shown as the percentage of annexin V−/PI− cells (live cells) and are normalized to untreated controls.
Primary tumor cells were isolated from the peripheral blood/lymph nodes of patients with MCL. All patients studied were diagnosed with MCL according to the World Health Organization (WHO) classification of tumors (Swerdlow, 2008, World Health Organization Classification of Tumours of Haematopoetic and Lymphoid Tissues (ed 4th ed.) Lyon, France, International Agency on Research for Cancer). All samples contained at least 85% of CD19^+/CD20^+ B cells detected by flow cytometry. […]
To assess lysosomal volume, FTY720 treated cells were incubated with LYSOTRACKER™ green DND-26. […] Cell viability was measured at 24 hours by dual staining with annexin-V FITC and propidium iodide (PI). A total of 10,000 events were collected and analyzed using WinMDI. […]
For orientation: Flow cytometry measures light scatter and fluorescence of single cells or particles in a stream.

For series [2], the system named is Jeko cells engrafted in SCID mice. Kind of series: Preclinical model of human MCL in SCID mice, survival. Format: in vivo, mouse. The settings on record: n=10/group, from day 15; FTY720 5 mg/kg i.p. daily 2 weeks; antibodies 15 mg/kg i.p. every three days.
Method: Evaluation of in vivo therapeutic activity of FTY720 and milatuzumab in the preclinical MCL model. SCID mice were injected i.v. with 40×10^6 JeKo cells and observed daily for signs of tumor burden.
Six to eight-week old female SCID mice (cb17 scid/scid) were purchased from Taconic Farms (Hudson, N.Y.) and maintained in pathogen-free, isolation cages. All animals were depleted of murine NK cells with intra-peritoneal (i.p.) injections of 0.2 mg of rat anti-mouse interleukin-2 receptor β monoclonal antibody (TMβ1) 1 day prior to engraftment with human tumor cell lines and then every week. Forty-eight hours post intravenous injection of 40×10^6 Jeko cells via tail vein, 50 mice were randomly distributed into 10 cages. Animals in groups of ten were treated starting at day 15 after engraftment. […] The third group was treated with FTY720 (5 mg/kg) every day for 2 weeks via i.p. The fourth group received milatuzumab (15 mg/kg) every three days, via i.p. injection. The fifth group received the combination of FTY720 and milatuzumab. Animals were monitored daily for signs of tumor burden, including hind limb paralysis, respiratory distress, weight loss, ruffled coat, and distended abdomen. Body weight was measured weekly for the first 3 weeks and then daily. […]
Series [3] deals with Jeko-1. The settings on record: Jeko-1, single agent, previous dose titration; read-out: LC50 (the source's name); cited from earlier work.
The subject of series [4] is Mino. The settings on record: single agent, previous dose titration, read-out: LC50 (the source's name); cited from earlier work.
Series [5] relates to UPN-1. The settings on record: UPN-1, single agent, previous dose titration; read-out: LC50 (the source's name); cited from earlier work.
Series [6] concerns Z-138. The settings on record: Z-138, single agent, previous dose titration; read-out: LC50 (the source's name); cited from earlier work.
For series [7] the following is noted: rat, 4 mg/kg single IV dose; cited from earlier work.
The conditions of series [8]: single agents, same dosage and delivery schedule; cited from earlier work.
For series [9] the following is noted: in subjects; cited from earlier work.
Series [10] relates to CD74 in 3 human AML cell lines. The experiment in a line: Flow cytometry of CD74 with/without permeabilization and IFN-γ. Format: cell-based. The settings on record: 3 AML lines, IFN-γ 40 and 200 U/mL. On the procedure: CD74 expression in bone marrow biopsy (BMB) specimens from non-M3 AML patients was evaluated by immunohistochemistry and, for 3 human AML cell lines, by flow cytometry, with/without permeabilization and with/without IFN-γ (40 and 200 U/mL). These cell lines were also tested in proliferation assays for responses to milatuzumab, with/without IFN-γ. In 13/14 BMB specimens, there was moderate to strong CD74 expression by leukemic blasts, which was mostly intracellular, usually with a perinuclear distribution (data not shown). […] IFN-γ induced intracellular CD74 in all 3 lines (from 85%-868%) (not shown).

Series [11] relates to HLA-DR and CD74 in cancer cell lines. The experiment in a line: Flow cytometry of antigen expression after IFN-γ, summary over the panel. Format: cell-based. The settings on record: two-day incubation with IFN-γ, Tables 4 and 5. On the procedure: We examined whether the ability of anti-CD74 MAbs to kill cancer cells can be increased by using IFN-γ as an inducer of antigen expression. Using a panel of diverse cancer cell lines (including NHL, MM, GBM, and pancreatic and colonic carcinomas), we examined IFN-γ-induced changes in surface and cytoplasmic CD74 expression. Sensitivity of the malignant cells to milatuzumab was assessed with and without IFN-γ by cytotoxicity assays.
Expression of CD74, HLA-DR, and carcinoembryonic antigen (CEACAM5) was determined in untreated cells and cells exposed to 200 U of IFN-γ for 48 h by flow cytometry. Cells were stained with directly labeled MAbs in comparison to a directly labeled human IgG control. Antibodies were labeled using ALEXA FLUOR® 488 (Invitrogen, Carlsbad, Calif.). For determination of cytoplasmic antigen expression, cells were permeabilized prior to staining using the BD CYTOFIX/CYTOPERM™ kit (BD Biosciences, San Jose, Calif.).
Two-day incubation with IFN-γ increased surface and cytoplasmic expression of CD74 and HLA-DR (Table 4, Table 5). In all 4 colon cancer lines, IFN-γ increased cytoplasmic expression of both antigens, and surface expression of HLA-DR in ¾ and CD74 in 2/4 (Table 4, Table 5). Upregulation of HLA-DR and CD74 ranged from 23-3700% (Table 4, Table 5).

As to `CCCCCCCCc1ccc(CCC(N)(CO)CO)cc1` [FTY720, fingolimod], the average cell death in series [1] is given as 47%. Besides, the median survival in series [2] came to 31 days. In addition, the CC50 in series [3] is 12.5 µM; in series [4], 7.5 µM; in series [5], 7.5 µM; in [6] it was 7.5 µM. Moreover, in series [7], the maximum plasma concentration is 3.5 µM. The “weight loss or other side effects” value in [8] was “did not cause any observed weight loss or other significant side effects”.
In the case of “veltuzumab: humanized IgG1 antibody against CD20”, the immunogenicity result in series [9] is reported as “less immunogenic in subjects than rituximab”.

B1: IFN-γ: interferon-γ, agent inducing CD74 expression (protein, UniProt P01579 24-161, looked up)
Interferon gamma: QDPYVKEAENLKKYFNAGHSDVADNGTLFLGILKNWKEESDRKIMQSQIVSFYFKLFKNFKDDQSIQKSVETIKEDMNVKFFNSNKKKRDDFEKLTNYSVTDLNVQRKAIHELIQVMAELSPAAKTGKRKRSQMLFRG
On to B1, for which the “upregulation of surface CD74” value in series [10] is 69-117%. In addition, in [11], the “upregulation of HLA-DR and CD74” value is 23-3700%.
